Measured values published in patent US20240368667A1, “RAPID, LABEL-FREE ANTIBIOTIC SUSCEPTIBILITY OF BACTERIA DIRECTLY FROM POSITIVE BLOOD OR BODILY FLUID/CULTURE” (priority 2021, published 2024).
≈ marks a conversion by molar mass, not a printed value. Read-outs that look alike come from different tables or passages of the source.

How the values were obtained:
E. coli = assay: Direct flow cytometric AST (high-throughput flow cytometry, HTFC) of sucrose-recovered bacteria; format: cell-based, Escherichia coli; set-up: key to susceptibility classification, HTFC: (S) sensitive; (I) intermediate; (R) resistant; conditions: for susceptibility classification, HTFC / MIC: sucrose-recovered, antibiotic 4 hours (37° C.); for MIC: Escherichia coli, 4 h, read-out: Minimum inhibitory concentration, HTFC
Protocol: AST workflow using bacteria recovered directly from positive blood culture. A 1-mL aliquot of bacteria recovered using separation method 2 was diluted 10-fold in CAMHB, the OD600 adjusted to ˜0.01, and a 50 μL aliquot distributed into each well of a 96-well plate containing CAMHB with and without ceftazidime, tobramycin, and either meropenem (E. coli and P. aeruginosa) or oxacillin (S. aureus). Following Clinical and Laboratory Standards Institute (CLSI) guidelines^33, 2% sodium chloride (NaCl) was present in wells containing oxacillin to assist in the detection of methicillin-resistant S. aureus (MRSA). […] To account for observed differences in doubling and lag times, E. coli and P. aeruginosa were incubated for 4 hours at 37° C., while S. aureus was incubated for 9 hours at 35° C. After incubation, antibiotic plates were removed from the incubator and directly stored on ice (i.e. no post-processing) until high-throughput flow cytometry (BD LSRFortessa with HTS-system, BD, Franklin Lakes, NJ). No-antibiotic controls and antibiotic-treated samples were handled identically.
MIC Determination by flow cytometry. Because antibiotic effects are observed in both the position of scatter signatures (morphology changes) and count rates (growth inhibition), a modified count rate, accounting for scatter position, was used to evaluate susceptibility. Briefly, no-antibiotic control populations (triplicate) were pooled, binned, and a convex hull boundary set at 1-standard deviation above the background (not including bins with zero counts) was drawn. […] The overlap ratio, measuring changes in morphology, was then computed by dividing the number of sample events within the no-antibiotic control boundary by the total number of events within the sample. As an increase in count rate attributed to viable bacteria in antibiotic-treated samples is not scientifically meaningful, the fractional overlap was multiplied by the minimum of the control and sample count rates to generate a modified count rate accounting for antibiotic-induced morphological changes. All modified count rates were normalized by the average of the no-antibiotic controls. For automatic MIC determination, normalized count rates corresponding to n (index of predicted MIC), n+1, n+2 were iteratively fit to a linear function with a frameshift of n+1 between iterations (FIGS. 8 and 9). […] A threshold of −0.01 instead of zero was used to mitigate the influence of small fluctuations in normalized count rates on susceptibility determinations.

E. coli 79 = assay: Microbroth dilution MIC with and without sucrose recovery; format: cell-based, Escherichia coli; conditions: MIC given as multiple of S/I/R
Protocol: Microbroth dilution for minimum inhibitory concentrations (MIC) with and without sucrose recovery. To isolate bacteria without sucrose, culture media from positive BacT/alert FA PLUS aerobic culture bottles (bioMérieux, Durham, NC) was serially diluted and plated onto LB agar (Lennox; Sigma-Aldrich, St. Louis, MO). Bacterial suspensions were prepared by resuspending colonies in CAMHB with incubation on a MaxQ 4000 incubator shaker (Thermo Fisher Scientific, Waltham, MA) at 37° C. and ˜225 rpm for 3 hours. Bacteria recovered via Method 2 were diluted 10-fold in CAMHB. Following incubation or sucrose recovery and dilution, bacterial suspensions were adjusted to ˜0.004 OD600 with CAMHB and a 50-μL aliquot distributed to each well of a 96-well plate containing CAMHB with and without clinically relevant antibiotics (2-fold dilution series). Gram-negative plates included: ceftazidime (3rd generation cephalosporin, RPI corp., Mount Prospect, IL), cefepime (4th generation cephalosporin, Chem-Impex Int'l, Wood Dale, IL), meropenem (carbapenem, Tokyo Chemical Industry, Tokyo, Japan), levofloxacin (quinolone, Alfa Aesar, Haverhill, MA), and tobramycin (aminoglycoside, MP Biomedicals LLC, Santa Ana, CA), while S. aureus plates contained: oxacillin (beta-lactam, Sigma-Aldrich, St. Louis, MO), vancomycin (glycopeptide, Santa Cruz Biotechnology, Dallas, TX), erythromycin (macrolide, Sigma-Aldrich, St. Louis, MO), clindamycin ([…]), and ciprofloxacin (fluoroquinolone, Sigma-Aldrich, St. Louis, MO). Antibiotic plates were incubated at 37° C. for 16-20 hours (gram-negative) or 35° C. for 24 hours (S. aureus), at which time, plates were removed from the incubator and visually inspected for bacterial growth. The MIC was set at the lowest antibiotic concentration at which no growth was detected.
Influence of Sucrose on Bacterial MIC. To rule out the potential effect of sucrose exposure in bacterial antibiotic susceptibility, microbroth dilution studies were performed on bacteria recovered using standard practices (i.e. plating following positive blood culture) and through selective lysis coupled with centrifugation through the sucrose cushion (Method 2).

| minimum inhibitory concentration (MIC), Standard (E. coli 79; E. coli 79 recovered by standard plating) | minimum inhibitory concentration (MIC), Sucrose (E. coli 79; E. coli 79 recovered through sucrose (Method 2)) | Compound | susceptibility classification, HTFC (E. coli; E. coli Blood Culture A) | susceptibility classification, HTFC (E. coli; E. coli Blood Culture B) | susceptibility classification, HTFC (E. coli; E. coli EC37) | susceptibility classification, HTFC (E. coli; E. coli EC-bank) | susceptibility classification, HTFC (E. coli; E. coli Mu76) | susceptibility classification, HTFC (E. coli; E. coli Mu218) | susceptibility classification, HTFC (E. coli; E. coli Mu890) | MIC (E. coli; E. coli Blood Culture A) [µg/mL] | MIC (E. coli; E. coli Blood Culture B) [µg/mL] | MIC (E. coli; E. coli EC37) [µg/mL] | MIC (E. coli; E. coli EC-bank) [µg/mL] | MIC (E. coli; E. coli Mu76) [µg/mL] | MIC (E. coli; E. coli Mu218) [µg/mL] | MIC (E. coli; E. coli Mu890) [µg/mL] | flow cytometric count rate (E. coli; E. coli, strain not named (FIG. 14), concentrations ≥0.25 μg/mL, no-antibiotic control ~11,000 evts/s) [evts/s] |
| --- | --- | --- | --- | --- | --- | --- | --- | --- | --- | --- | --- | --- | --- | --- | --- | --- | --- |
| – | – | C[C@@H](O)[C@H]1C(=O)N2C(C(=O)O)=C(S[C@@H]3CN[C@H](C(=O)N(C)C)C3)[C@H](C)[C@H]12 [Meropenem, meropenem] | (S) | (S) | (S) | (S) | (R) | (S) | (S) | ≤ 0.06 | ≤ 0.06 | ≤ 0.06 | ≤ 0.06 | 4 (≈ 10.4 µM) | ≤ 0.06 | ≤ 0.06 | – |
| – | – | CC(C)(O/N=C(\C(=O)N[C@@H]1C(=O)N2C(C(=O)[O-])=C(C[n+]3ccccc3)CS[C@H]12)c1csc(N)n1)C(=O)O [Ceftazidime, ceftazidime] | (I) | (R) | (I) | (R) | (S) | (R) | (S) | 8 (≈ 14.6 µM) | 32 (≈ 58.5 µM) | 8 (≈ 14.6 µM) | 16 (≈ 29.3 µM) | 1 (≈ 1.83 µM) | 16 (≈ 29.3 µM) | ≤ 0.25 | – |
| ¼S | ¼S | NC[C@H]1O[C@H](O[C@H]2[C@H](O)[C@@H](O[C@H]3O[C@H](CO)[C@@H](O)[C@H](N)[C@H]3O)[C@H](N)C[C@@H]2N)[C@H](N)C[C@@H]1O [Tobramycin, tobramycin] | (S) | (S) | (S) | (S) | (S) | (R) | (S) | 0.25 (≈ 0.535 µM) | 4 (≈ 8.56 µM) | 0.25 (≈ 0.535 µM) | ≤ 0.125 | 0.5 (≈ 1.07 µM) | 16 (≈ 34.2 µM) | 0.5 (≈ 1.07 µM) | ≥ 100 |
